Experimental data as given in ChEMBL document CHEMBL2029216, “Synthesis and evaluation of [18F]Fluorobutyl ethacrynic amide: a potential PET tracer for studying glutathione transferase” (Bioorg Med Chem Lett, 2012).
Values belong to the compound of their own block, whether it stands above or below them.

Legend:
[1] = system: MCF7; experiment: Cytotoxicity against human MCF7 cells; assay type: functional, cell-based
[2] = system: A549; experiment: Cytotoxicity against human A549 cells; assay type: functional, cell-based
[3] = system: IMR-90; experiment: Cytotoxicity against human IMR90 cells; assay type: cell-based
[4] = system: Liver; experiment: Drug uptake in TAA-induced cholangiocarcinoma model of rat liver expressing GSTalpha assessed as heterogeneous distribution of [18F]FBuEA-GSH10 complex at 569 uCi/0.6 mL, iv after 120 mins by PET analysis; assay type: ADME, organism-based; details: in vivo, 2 h
[5] = system: Liver; experiment: Drug uptake in Sprague-Dawley rat liver expressing GSTalpha assessed as homogeneous distribution of [18F]FBuEA-GSH10 complex at 717 uCi/mL, iv after 120 mins by PET analysis; assay type: ADME, organism-based; details: in vivo, 2 h
[6] = Octanol-water partition coefficient, Log P of the compound at 12.6 uCi by Shake-flask method; assay type: physicochemical
[7] = system: Liver; experiment: Drug uptake in mouse liver after 5 mins; assay type: ADME, tissue-based; details: in vivo
[8] = system: Kidney; experiment: Drug uptake in mouse kidney after 5 mins; assay type: ADME, tissue-based; details: in vivo
[9] = Drug uptake in TAA-induced cholangiocarcinoma model of rat tumor expressing GSTalpha assessed as cold spot using [18F]FDG at 486 uCi/0.23 mL, iv after 5 days by PET analysis; assay type: ADME, organism-based, Neoplasm; details: in vivo, 120 h
[10] = Drug uptake in 18 weeks TAA treated rat TAA-induced cholangiocarcinoma model tumor expressing GSTalpha assessed as hot spot using [18F]FDG at 486 uCi/0.23 mL, iv after 30 mins by PET analysis; assay type: ADME, organism-based, Neoplasm; details: in vivo, 0.5 h
[11] = Drug uptake in 23 weeks TAA treated rat TAA-induced cholangiocarcinoma model tumor expressing GSTalpha assessed as cold spot using [18F]FDG at 801 uCi/0.23 mL, iv after 5 to 10 mins by PET analysis; assay type: ADME, organism-based, Neoplasm; details: in vivo
[12] = system: Urinary bladder; experiment: Drug uptake in mouse bladder after 5 mins; assay type: ADME, tissue-based; details: in vivo
[13] = Half life in rat plasma at 6.3 MBq, iv by HPLC analysis; assay type: ADME, organism-based
[14] = system: Nucleic Acid; experiment: Ratio of drug level in tumor to liver in rat TAA-induced cholangiocarcinoma model; assay type: ADME, tissue-based; details: in vivo

SMILES: C=C(CC)C(=O)c1ccc(OCC(=O)NCCCC)c(Cl)c1Cl
- IC50 [1]: 4 µM
- IC50 [2]: 13 µM

SMILES: C=C(CC)C(=O)c1ccc(OCC(=O)NCCCCF)c(Cl)c1Cl
- IC50 [1]: 3 µM
- IC50 [3]: 18 µM
- IC50 [2]: 8 µM

Now from value to compound, other results behind:

- Drug uptake [4]: Active
- Drug uptake [5]: Active
- logP [6]: 1.47
- Drug uptake [7]: Active
- Drug uptake [8]: Active
- Drug uptake [9]: Active
- Drug uptake [10]: Active
- Drug uptake [11]: Active
- Drug uptake [12]: Active
SMILES: C=C(CC)C(=O)c1ccc(OCC(=O)NCCCC[18F])c(Cl)c1Cl

- half-life [13]: 30 min
SMILES: C=C(CC)C(=O)c1ccc(OCC(=O)O)c(Cl)c1Cl [ETHACRYNIC ACID]
- IC50 [2]: 84 µM

- Ratio [14]: 1.6
SMILES: OC[C@H]1O[C@@H](O)[C@H]([18F])[C@@H](O)[C@@H]1O [FLUDEOXYGLUCOSE-F18]
